Source: BindingDB's records for doi:10.1021/jm301258w (University of Innsbruck, 2012)

Tests used:
[1] = Agonist activity at human dopamine D3 receptor expressed in CHOp cells assessed as stimulation of mitogenesis incubated for 24 hrs by [3H]thymidine incorporation assay
[2] = Antagonist activity at human dopamine D3 receptor expressed in CHOp cells assessed as inhibition of quinpirol-induced mitogenesis incubated for 24 hrs by [3H]thymidine incorporation assay
[3] = Antagonist activity at human dopamine D2 receptor expressed in CHOp cells assessed as inhibition of quinpirol-induced mitogenesis incubated for 24 hrs by [3H]thymidine incorporation assay

Row | Compound | EC50 [1] [nM] | IC50 [2] [nM] | IC50 [3] [nM]
1 | CCCN(CCc1ccccc1)CCc1cccc(O)c1 | 5.3 | – | –
2 | Oc1cccc(CCN(CCc2ccccc2)CC2CCC2)c1 | > 10000 | 953 | 1650
3 | Oc1cccc(CCN(CCc2ccccc2)CC2CC2)c1 | 32 | – | –
4 | CCCCCCN(CCc1ccccc1)CCc1cccc(O)c1 | – | – | 1250
